In patent US20250340540A1, “Crystal Forms Of HS378 And Preparation Method Therefor” (priority 2022, published 2025):
Read-outs that look alike come from different tables or passages of the source.

Columns and labels:
[1] = format: physicochemical; details: for Changes of HPLC purity over 10 days: 10 days vs 0 day; for Stability of crystal form and HPLC data: 10 days
Method: The X-ray powder diffraction instrument and test conditions involved in the present disclosure were as follows: X-ray diffraction instrument model MiniFlex600Cu target; operation method: scanning speed 20°/min, scanning step width 0.02°. The liquid phase test conditions involved in the present disclosure were as follows: chromatographic column: Agilent Zorbax SB-18, 150×4.6 mm, 5 μm; mobile phase A: 0.1% phosphoric acid aqueous solution; mobile phase B: acetonitrile; detection wavelength: 205 nm; flow rate: 1.0 ml/min; injection volume: 5 μl; column temperature: […]. The samples of crystal form A obtained in Example 1, the crystal form B obtained in Example 5 of the present disclosure, and the crystal forms 1, 2, 4, and 5 obtained in Preparation Example were placed at 60° C. for 5 days and 10 days, respectively, and subjected to HPLC and XRD detection, respectively.

[2] = Microscope photographs: crystal habit and particle fluidity; format: physicochemical; details: judged from microscope photographs
Source text: Microscope photographs of the samples of the crystal form A obtained in Example 1, the crystal form B obtained in Example 5 of the present disclosure, and the crystal forms 1, 2, 4, and 5 obtained in Preparation Example are shown in FIGS. 7-12, respectively.

[3] = human, in vivo; cited from earlier work
[4] = 0 Day, before placing at 60° C.

| SMILES | HPLC purity (%) [1, 4] [%] | HPLC purity (%) ([1]; 60° C., 5 Days) | HPLC purity (%) ([1]; 60° C., 10 Days) | Changes of HPLC purity over 10 days ([1]; 60° C.) | Stability of crystal form and HPLC data [1] | Particle fluidity [2] | Oral plasma concentration [3] |
| --- | --- | --- | --- | --- | --- | --- | --- |
| CC(C)(C)[C@H](NC(=O)C(F)(F)F)C(=O)N1C[C@H]2[C@@H]([C@H]1C(=O)N[C@H](C#N)C[C@@H]1CCNC1=O)C2(C)C [Crystal form 1] | 95.34 | 95.34 | 95.31 | −0.03 | more stable than crystal form 2, crystal form 4 and crystal form 5 | poor fluidity |  |
| CC(C)(C)[C@H](NC(=O)C(F)(F)F)C(=O)N1C[C@H]2[C@@H]([C@H]1C(=O)N[C@H](C#N)C[C@@H]1CCNC1=O)C2(C)C [Crystal form 2] | 93.83 | 93.71 | 93.52 | −0.31 |  | poor fluidity |  |
| CC(C)(C)[C@H](NC(=O)C(F)(F)F)C(=O)N1C[C@H]2[C@@H]([C@H]1C(=O)N[C@H](C#N)C[C@@H]1CCNC1=O)C2(C)C [Crystal form 4] | 93.31 | 93.26 | 93.14 | −0.17 |  |  |  |
| CC(C)(C)[C@H](NC(=O)C(F)(F)F)C(=O)N1C[C@H]2[C@@H]([C@H]1C(=O)N[C@H](C#N)C[C@@H]1CCNC1=O)C2(C)C [Crystal form 5] | 91.23 | 91.05 | 90.79 | −0.44 |  | poor fluidity |  |
| CC(C)(C)[C@H](NC(=O)C(F)(F)F)C(=O)N1C[C@H]2[C@@H]([C@H]1C(=O)N[C@H](C#N)C[C@@H]1CCNC1=O)C2(C)C [Crystal form A] | 99.86 | 99.86 | 99.85 | −0.01 | more stable than crystal form 2, crystal form 4 and crystal form 5 | good in particle fluidity |  |
| CC(C)(C)[C@H](NC(=O)C(F)(F)F)C(=O)N1C[C@H]2[C@@H]([C@H]1C(=O)N[C@H](C#N)C[C@@H]1CCNC1=O)C2(C)C [Crystal form B] | 99.57 | 99.56 | 99.54 | −0.03 | more stable than crystal form 2, crystal form 4 and crystal form 5 | good in particle fluidity |  |
| CC(C)(C)[C@H](NC(=O)C(F)(F)F)C(=O)N1C[C@H]2[C@@H]([C@H]1C(=O)N[C@H](C#N)C[C@@H]1CCNC1=O)C2(C)C [HS378, (1R, 2S, 5S)-N-{(1S)-1-cyano-2-[(3S)-2-oxopyrrolidin-3-yl]-ethyl}-6,6-dimethyl-3-[3-methyl-N-(trifluoroacetyl)-L-valyl]-3-azabicyclo [3.1.0]hexane-2-carboxamide] |  |  |  |  |  |  | exceeding in vitro antiviral cell efficacy |
